“Also recorded” adds a separate entry of the source. Where a name gives a salt, the structure may show the parent alone.
How the values were obtained:
[1] = test system: amyloid fibrils from insulin; test: Atomic force microscopy of insulin amyloid fibrils incubated with Congo red; format: binding; conditions: 140 μmol/L CR in water, 2 hours, fibrils on silicon surface
Procedure: (§1) Amyloid fibrils from the insulin hormone were obtained by dissolving insulin (3.5 mmol/L) in water adjusted to pH 2 with HCl and heated to 70° C. for 2 hours. Samples were diluted to a concentration of 7 μmol/L at room temperature and transferred to a piranha (4:1, H2SO4:H2O2) cleaned naturally oxidized silicon wafer. After 15 minutes of incubation the silicon surface was rinsed with water. The amyloid fibers on the silicon surface are then incubated with a 140 μmol/L solution of CR in water during 2 hours and successively rinsed with water.

[2] = water; organic solvents such as ethanol; cited from earlier work
[3] = test system: Congo Red-amyloid fibril complex (insulin fibrils); test: AFM of Congo Red-amyloid fibril complex after incubation with metal ions or colloids (fibril disintegration); conditions: CR-stained insulin fibrils, 5 mmol/L silver ions, 15 minutes; for disintegration of the dye-amyloid fibers (AFM image): rinsed and dried
Procedure: as §1
The predominant particles are soluble dimers and higher order aggregates with the hydrophobic regions sequestered from the aqueous environment (D. Watson et al., Neurological Research 27, 869-881 (2005)). The soluble oligomeric amyloid-beta peptides are the principal constituent of amyloid deposits such as plaques and intraneuronal tangles.
The positively charged metal ions bind to the negatively charged sulfonate groups of the dye and interfere with the electrostatic bond between the negatively charged group of the CR molecule and the basic amino acid side chain of the fibril. This way the dye-peptide bond is disrupted at the monomer level, which causes the disintegration of the fibril. Our in vitro study points out that neurodegenerative disorders can be treated by negatively charged molecules, like CR which intercalate between the amyloid β-strands and induce a destabilization of the CR-fibril complex when metallic ions such as silver ions are introduced.

insulin fibrils = test: Fluorescence microscopy of dye-amyloid fibril complexes; format: binding; conditions: insulin fibrils incubated with CR
Excerpt: The dye-amyloid fibril complexes were also imaged with fluorescence microscopy, as CR is a fluorophore. […] Bright contrast in the fluorescence images corresponds to the presence of the fluorophore on the insulin fibrils, which themselves are not fluorescent.

Compound	average cross section of the dye-amyloid fiber (AFM) [1]	solubility [2]	disintegration of the dye-amyloid fibers (AFM image) [3]	presence of the fluorophore on the insulin fibrils (fluorescence images) (insulin fibrils)	heights of the particles left after disintegration (AFM) [3]
Nc1c(/N=N/c2ccc(-c3ccc(/N=N/c4cc(S(=O)(=O)O)c5ccccc5c4N)cc3)cc2)cc(S(=O)(=O)O)c2ccccc12 [Congo red, sodium salt of benzidinediazo-bis-1-naphthylamine-4-sulfonic acid]	same dimension as in the absence of CR	water soluble; also recorded: solubility is better in organic solvents such as ethanol	total disintegration of the amyloid fibrils into peptide monomers	bound or intercalated evenly in the insulin fibrils	
silver ions			total disintegration		1-2 nm

— patent US20130115257A1, “COMPOSITIONS AND METHODS FOR REMOVAL OR DESTRUCTION OF AMYLOID FIBRIL OR AMYLOID ADHESIN COMPRISING AGGREGATES” (KATHOLIEKE UNIVERSITEIT LEUVEN, priority 2010, published 2013)
